Data set [1] has as its system mice infected with H3N2 influenza (A/x31) and challenged with poly I:C. The data set is described as follows: Model of ARDS associated to influenza A virus (IAV) infection with Poly I:C challenge, BAL cells, cytokines, lung viral titre. The data set is classed as in vivo. The note with it: for Lymphocyte infiltration / Macrophage infiltration / Neutrophil infiltration: SEQ ID NO:1 80-800 μg/Kg iv q.d., Dex 10 mg/kg ip q.d.; for BAL Lymphocytes / BAL Macrophages / BAL Neutrophils: IAV/Poly I:C, 48 hrs after Poly I:C. The procedure: Mice were infected intranasally with a H3N2 strain of influenza (A/x31; 1×10^3 pfu). Three days after infection (time of peak viral load in the lung), animals received a dose of the viral mimetic polyinosinic-polycytidylic acid (poly I:C) or vehicle (PBS). Initially, dose response and time course studies with Poly I:C were done to establish conditions to show exacerbated lung inflammation after viral challenge (30 μg/animal and 48 hrs after Poly I:C challenge, respectively). SEQ ID NO:1 (80-800 μg/Kg) or vehicle were administered q.d. intravenously, 15 min before Poly I:C and 24 hrs later. Positive control Dexamethasone (Dex) was administered q.d. intraperitoneally (10 mg/kg) 1 hr before poly I:C challenge and 24 hrs later. 48 hrs after Poly I:C challenge, bronchoalveolar lavage (BAL) fluid was collected for differential cell counts and to measure cytokines using a multiplex immunoassay. Lung tissue was also collected to determine the viral titre.

Data set [2] has as its system ovalbumin sensitised BALB/c mice. The note with it: mouse, in vivo.
Data set [3] deals with dendritic cells from CD14+ monocytes of healthy donors. The data set is classed as cell-based, human. The note with it: 400 ng/mL + LPS/IFNγ.
Data set [4] has as its system HDM-induced pulmonary inflammation in Balb/C mice. Description: House dust mite (HDM)-induced pulmonary inflammation, 3 week i.n. HDM sensitisation model, BAL cell influx and cytokines. The data set is classed as in vivo. The protocol:
The objective of the study was to investigate the inhibitory effects of 3 different concentrations of the peptides in a saline solution on house dust mite (HDM)-induced pulmonary inflammation in Balb/C mice using a 3 week intranasal (i.n.) HDM sensitisation model. Results are shown for SEQ ID NO: 1. This study also looked at time point effects of SEQ ID NO: 1; in addition to 7 day post HDM challenge, a further time point, 4 h post a second HDM challenge (14 days after the first HDM challenge), was investigated to assess the effects of SEQ ID NO: 1 on remission of the allergic response.
A 3 week sensitisation and challenge model was applied where n=90 female Balb/C mice of approximately 6-8 weeks of age, approximately 20-25 g at start of study were used.
Following 11 days' acclimatisation all mice received 25 μg (total protein) HDM delivered i.n. 5 days/week for 3 weeks. HDM sensitisation was carried out each day of dosing and all intranasal dosing was performed where the mice were lightly anaesthetised using isoflurane.
Two weeks after the final HDM sensitisation dose all mice received a single 50 μL i.n. dose of a saline solution of the peptide or saline (0.9% w/v Sodium Chloride) vehicle solution. For SEQ ID NO: 1, dose solutions were 0.02 μg/kg, 0.2 μg/kg and 2 μg/kg. 15 minutes post peptide or saline vehicle dose all mice received a single 50 uL challenge administered i.n. of saline (0.9% w/v Sodium Chloride) or 100 μg HDM.
Some groups of animals received a second 50 μL i.n. administered dose of either saline or HDM 100 μg dose four weeks post sensitisation. Animals were then euthanised 4 hrs post second challenge (corresponding to 14 days post dosing).
The lungs were lavaged via the trachea with 1 mL of BAL (bronchoalveolar lavage) fluid. Samples were placed on wet ice (4° C.) and a differential cell count using a Sysmex XT2000i vet cell analyser was performed before the BAL sample was centrifuged at 1300 rcf for 7 min. A 200 μL BAL supernatant sample was put in a polypropylene U bottom 96 well plate and frozen at −20° C. for subsequent cytokine analysis using a standard MSD protocol.
Data analysis was performed using Graphpad PRISM 6. The statistical tests applied to determine statistical significance were analysis of variance (ANOVA) followed by a post-hoc test or an unpaired T-test.

Data set [5] has as its system animal model of allergic airway inflammation. To be noted: disclosed in WO2009/106819; cited from earlier work.
Data set [6] deals with THP-1 differentiated macrophages. Description: IL-10 release from LPS stimulated macrophages (alphaLISA). Format: cell-based, human. To be noted: 1 nM; top LPS doses 1-10 μg/mL; 6 hours after LPS stimulation. The protocol:
THP-1 monocytic human cells were differentiated into macrophages with 50 nM phorbol myristate acetate for 48 hrs on a 96 well plate (100K cells/well).
Macrophages were stimulated with increasing concentrations of bacterial lipopolysaccharide (LPS 10^−6-10 μg/mL) in the presence or absence of SEQ ID NO:1 (1 nM). 30 μL of cell media was sampled at 6 hours after LPS stimulation and an IL-10 alphaLISA was run to measure the release of IL-10.
In general terms: Alpha assays give light when donor and acceptor beads are brought close together.

Setting [7] is: 48 hrs after Poly I:C challenge.
The mark [8] stands for this setting: 2 μg/kg i.n. single dose, 7 day time point, compared to saline/HDM.
Where [9] appears, read: 2 μg/kg i.n. single dose, 14 day time point, 4 hrs post second HDM challenge, compared to saline/HDM.
Where [10] appears, read: 2 μg/kg i.n., 14 days time point, compared to saline/HDM.
[11] abbreviates: 48 hrs after Poly I:C challenge, multiplex immunoassay.

Ends that are not written are not given here.

In the case of `C[C@@H]1C[C@H]2[C@@H]3CCC4=CC(=O)C=C[C@]4(C)[C@@]3(F)[C@@H](O)C[C@]2(C)[C@@]1(O)C(=O)CO` [Dex, Dexamethasone, reference compound], in data set [1] (setting [7]), the Lymphocyte infiltration result was “no effect”, the Macrophage infiltration result was “no effect” and the Neutrophil infiltration entry was “no effect”. Also, in data set [1] (10 mg/kg ip), the “BAL Lymphocytes” value is listed as 9.4 ± 0.7 ×10^4/mL, the “BAL Macrophages” value is reported as 40.90 ± 0.2 ×10^4/mL and the “BAL Neutrophils” value is 35.7 ± 2.6 ×10^4/mL.

With DGSVVVNKVSEL-NH2 [SEQ ID NO:3], in data set [2], the BAL eosinophil number result is listed as “significantly reduced” and the “BAL total number of cells” value was “significantly reduced”.

On to “DGSVVVNKVSELPAGHGLNVNTLSYGDLAAD-OH [SEQ ID NO:1]”, for which, in data set [3], the “IL-10 gene expression (LPS/IFNγ suppression)” value was “significantly attenuate the LPS/IFNγ suppression of the IL-10 gene”. In addition, in data set [2], the “Circulating levels of peptide” value was “no longer detectable”; the “Intensity of the inflammatory response (BAL total cells, eosinophils)” value is recorded as “significantly reduced”; the “Recruitment of eosinophils after OVA re-challenge” value is listed as “efficient in inhibiting the recruitment of eosinophils”. Further, in data set [4] (setting [8]), the “BAL level of eosinophils” value is “decreased level of neutrophils and eosinophils compared to saline/HDM although not statistically significant”; the “BAL level of neutrophils” value is “decreased level of neutrophils and eosinophils compared to saline/HDM although not statistically significant”. In data set [4] (setting [9]), the “BAL level of eosinophils” value is given as “significantly decreased level”, the “BAL level of lymphocytes” value is on record as “significantly decreased level” and the “BAL level of neutrophils” value is recorded as “significantly decreased level”. Further, in data set [4] (setting [10]), the “BAL level of IL-4” value is “significant inhibition”, the “BAL level of IL-5” value is listed as “significant inhibition” and the “BAL level of IL-13” value is recorded as “significant inhibition”. For the same molecule, in data set [4] (0.02, 0.2, 2 μg/kg i.n., 7 days time point, compared to saline/HDM), the “BAL release of anti inflammatory cytokine IL-10” value was “significant dose response release”. For the same molecule, in data set [4] (SEQ ID NO:1 treated groups (0.02-2 μg/kg i.n.), 7 day time point), the BAL infiltrated macrophages result is on record as “trend to an increase of infiltrated macrophages”. Also, in data set [5], the Recruitment of eosinophils entry is reported as “significantly reduce the recruitment of eosinophils”. Also, the “Release of IL-10” value in data set [6] is listed as “potentiated the release of IL-10”. Besides, in data set [1] (setting [7]), the Lung viral titre entry is reported as “no significant effect”; the Lymphocyte infiltration entry was “significantly and dose dependently reduced”; the Macrophage infiltration entry is “significantly and dose dependently reduced”; the Neutrophil infiltration result was “significantly and dose dependently reduced”. Besides, in data set [1] (setting [11]), the “BAL G-CSF” value is recorded as “significant suppression”, the “BAL GM-CSF” value is “significant suppression”, the “BAL IFN-γ” value is recorded as “significant suppression” and the “BAL IL-1γ” value is reported as “significant suppression”. Moreover, in data set [1] (setting [11]), the “BAL IL-6” value is recorded as “significant suppression”, the “BAL IL-10” value is reported as “significant suppression”, the “BAL IL-17” value is given as “significant suppression” and the “BAL KC/IL-8” value was “significant suppression”. In addition, in data set [1] (setting [11]), the “BAL MCP-1” value is given as “significant suppression”, the “BAL MIP-1α” value was “significant suppression”, the “BAL MIP-3α” value is listed as “significant suppression” and the “BAL TNF-α” value was “significant suppression”. In data set [1] (80μ/kg iv), the “BAL Lymphocytes” value is reported as 7.4 ± 0.5 ×10^4/mL, the “BAL Macrophages” value was 40.3 ± 1.6 ×10^4/mL and the “BAL Neutrophils” value is listed as 30 ± 2.2 ×10^4/mL. In data set [1] (800μ/kg iv), the “BAL Lymphocytes” value was 4.7 ± 0.5 ×10^4/mL, the “BAL Macrophages” value is listed as 24.1 ± 1.6 ×10^4/mL and the “BAL Neutrophils” value is on record as 15.3 ± 2.4 ×10^4/mL.
